Source: patent US7498300B2, “CRFR1 selective ligands” (The Salk Institute for Biological Studies, priority 2001, dated 2009)

Tests used:
human CRFR1 = target: T1, human CRFR1 (Homo sapiens, UniProt P34998); assay: Competitive binding assay, CHO cells stably expressing human CRFR1, displacement of 125I-(Nle21,Tyr32) ovine CRF
T1 construct: expressed in transfected cells
T1 sequence (P34998 24-415): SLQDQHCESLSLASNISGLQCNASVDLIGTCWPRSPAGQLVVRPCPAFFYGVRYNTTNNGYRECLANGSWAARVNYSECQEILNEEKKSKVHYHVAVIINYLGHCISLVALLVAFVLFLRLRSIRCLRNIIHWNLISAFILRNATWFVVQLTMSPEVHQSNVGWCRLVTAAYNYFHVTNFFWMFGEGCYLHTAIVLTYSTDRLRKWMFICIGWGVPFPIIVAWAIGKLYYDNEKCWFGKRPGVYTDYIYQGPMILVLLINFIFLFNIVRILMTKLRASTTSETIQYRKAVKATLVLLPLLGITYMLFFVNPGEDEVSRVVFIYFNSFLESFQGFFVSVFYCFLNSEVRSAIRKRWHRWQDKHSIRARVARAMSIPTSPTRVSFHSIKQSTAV
Experimental: Binding affinity is a term used to refer to the strength of interaction between ligand and receptor. […] Ki (inhibitory binding affinity constant) is determined using a “standard” or “tracer” radioactive ligand and thus measures the displacement of the tracer from the receptor or binding protein; it is most properly expressed with reference to such tracer. However, so long as these assays are carefully performed under specific conditions with relatively low concentrations of receptor or the like, the calculated Ki will be substantially the same as its dissociation constant KD. […] It is particularly efficient to test for Ki because only a single tracer need be labelled, e.g. radioiodinated.
Binding assays with cells expressing human CRFR1 are carried out as described in the Chen et al. P.N.A.S., supra. The affinities of test peptides for CRFR1 and CRFR2 stably expressed in CHO cells were determined by competitive displacement of ^125I-(Nle^21, Tyr^32) ovine CRF (for CRFR1) or of [^125I-Tyr^o-]Ucn (for CRFR2) as described.

human CRFR2 = target: T2, human CRFR2 (Homo sapiens, UniProt Q13324); assay: Competitive binding assay, CHO cells stably expressing human CRFR2, displacement of [125I-Tyr0]Ucn
T2 construct: expressed in transfected cells
T2 sequence (Q13324 1-411): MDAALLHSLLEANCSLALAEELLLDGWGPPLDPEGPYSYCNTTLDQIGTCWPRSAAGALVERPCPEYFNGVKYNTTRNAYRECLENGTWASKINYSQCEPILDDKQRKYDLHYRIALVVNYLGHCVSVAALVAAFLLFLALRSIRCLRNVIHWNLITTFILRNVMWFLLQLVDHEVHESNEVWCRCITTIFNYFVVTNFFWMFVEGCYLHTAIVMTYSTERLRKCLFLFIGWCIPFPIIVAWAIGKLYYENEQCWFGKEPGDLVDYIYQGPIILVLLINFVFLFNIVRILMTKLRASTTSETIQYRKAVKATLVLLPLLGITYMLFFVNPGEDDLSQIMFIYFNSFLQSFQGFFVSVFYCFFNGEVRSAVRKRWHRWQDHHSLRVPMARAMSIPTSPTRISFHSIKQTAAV
Experimental: The affinities of test peptides for CRFR1 and CRFR2 stably expressed in CHO cells were determined by competitive displacement of ^125I-(Nle^21, Tyr^32) ovine CRF (for CRFR1) or of [^125I-Tyr^o-]Ucn (for CRFR2) as described.

[1] = system: cultured rat pituitary cells; assay: In vitro stimulation of ACTH and β-endorphin secretion by cultured rat pituitary cells; type: cell-based
Experimental: (§1) In vivo testing is carried out using the general procedure set forth in C.

[2] = In vivo lowering of blood pressure on peripheral administration; details: administered peripherally
Experimental: as §1

Row | Substance | binding to CRFR1 (in words) (human CRFR1) | binding to CRFR2 (in words) (human CRFR2) | stimulation of the secretion of ACTH and β-END-LI [1] | lowering of blood pressure [2]
1 | (cyclo 31-34)[Ac-Pro^4, CML^19, Nle^21,38, Glu^31, Lys^34]-r/hCRF(4-41) [Example 5 B] | binds strongly | only very weakly | stimulates | very significant lowering of blood pressure
2 | (cyclo 31-34)[Ac-Pro^4, D-Phe^12, CML^14,27, Nle^21,38, Glu^31, Lys^34]-r/hCRF(4-41) [Example 6 A] | binds strongly | only very weakly | stimulates | very significant lowering of blood pressure
3 | (cyclo 31-34)[Ac-Pro^4, D-Phe^12, CML^14, Nle^21,38, Glu^31, Lys^34]-r/hCRF(4-41) [Example 5 A] | binds strongly | only very weakly | stimulates | very significant lowering of blood pressure
4 | (cyclo 31-34)[Ac-Pro^4, D-Phe^12, CML^15, Nle^21,38, Glu^31, Lys^34]-r/hCRF(4-41) [Example 5] | binds strongly | only very weakly | stimulates | very significant lowering of blood pressure
5 | (cyclo 31-34)[Ac-Pro^4, D-Phe^12, CML^17, Nle^21,38, Glu^31, Lys^34]-r/hCRF(4-41) [Example 5 E] | binds strongly | only very weakly | stimulates | very significant lowering of blood pressure
6 | (cyclo 31-34)[Ac-Pro^4, D-Phe^12, CML^18,27, Nle^21,38, Glu^31, Lys^34]-r/hCRF(4-41) [Example 6 B] | binds strongly | only very weakly | stimulates | very significant lowering of blood pressure
7 | (cyclo 31-34)[Ac-Pro^4, D-Phe^12, Nle^14,18,24, Glu^31, Lys^34]-flounder urotensin(4-41) [Example 3 G] | binds strongly | only very weakly | stimulates | very significant lowering of blood pressure
8 | (cyclo 31-34)[Ac-Pro^4, D-Phe^12, Nle^14,18,24, Glu^31, Lys^34]-maggy urotensin(4-41) [Example 3 E] | binds strongly | only very weakly | stimulates | very significant lowering of blood pressure
9 | (cyclo 31-34)[Ac-Pro^4, D-Phe^12, Nle^18,21, Glu^31, Lys^34]-AHC(4-41) [Example 3 A] | bind strongly | only very weakly | strongly stimulates | very significant lowering of blood pressure
10 | (cyclo 31-34)[Ac-Pro^4, D-Phe^12, Nle^18,21, Glu^31, Lys^34]-carp urotensin(4-41) [Example 3 F] | binds strongly | only very weakly | stimulates | very significant lowering of blood pressure
11 | (cyclo 31-34)[Ac-Pro^4, D-Phe^12, Nle^18,21, Glu^31, Lys^34]-sucker urotensin(4-41) [Example 3 B] | binds strongly | only very weakly | stimulates | very significant lowering of blood pressure
12 | (cyclo 31-34)[Ac-Pro^4, D-Phe^12, Nle^21,37,38, Glu^31, Lys^34]-fish CRF(4-41) [Example 3 D] | binds strongly | only very weakly | stimulates | very significant lowering of blood pressure
13 | (cyclo 31-34)[Ac-Pro^4, D-Phe^12, Nle^21,38, CML^27,36, Glu^31, D-His^32, Lys^34]-r/hCRF(4-41) [Example 6 C D-His^32 analog] | binds strongly | only very weakly | stimulates | very significant lowering of blood pressure
14 | (cyclo 31-34)[Ac-Pro^4, D-Phe^12, Nle^21,38, CML^27,36, Glu^31, Lys^34]-r/hCRF(4-41) [Example 6 C] | binds strongly | only very weakly | stimulates | very significant lowering of blood pressure
15 | (cyclo 31-34)[Ac-Pro^4, D-Phe^12, Nle^21,38, CML^27,37, Glu^31, Lys^34]-r/hCRF(4-41) [Example 6 D] | binds strongly | only very weakly | stimulates | very significant lowering of blood pressure
16 | (cyclo 31-34)[Ac-Pro^4, D-Phe^12, Nle^21,38, CML^27,40, Glu^31, Aib^33, Lys^34]-r/hCRF(4-41) [Example 6 G] | high affinity | bind only weakly | stimulates | very significant lowering of blood pressure
17 | (cyclo 31-34)[Ac-Pro^4, D-Phe^12, Nle^21,38, CML^27,40, Glu^31, D-Ala^33, Lys^34]-r/hCRF(4-41) [Example 6 I] | high affinity | bind only weakly | stimulates | very significant lowering of blood pressure
18 | (cyclo 31-34)[Ac-Pro^4, D-Phe^12, Nle^21,38, CML^27,40, Glu^31, D-Ser^33, Lys^34]-r/hCRF(4-41) [Example 6 H] | – | bind only weakly | stimulates | very significant lowering of blood pressure
19 | (cyclo 31-34)[Ac-Pro^4, D-Phe^12, Nle^21,38, CML^27,40, Glu^31, Lys^34]-r/hCRF(4-41) [Example 6 E] | high affinity | bind only weakly | stimulates | very significant lowering of blood pressure
20 | (cyclo 31-34)[Ac-Pro^4, D-Phe^12, Nle^21,38, CML^27,41, Glu^31, Lys^34]-r/hCRF(4-41) [Example 6 F] | binds strongly | only very weakly | stimulates | very significant lowering of blood pressure
21 | (cyclo 31-34)[Ac-Pro^4, D-Phe^12, Nle^21,38, CML^27, Glu^31, D-His^32, Lys^34]-r/hCRF(4-41) [Example 5 F] | binds strongly | only very weakly | stimulates | very significant lowering of blood pressure
